Measurements: publication PMC12040169 (PLOS Biology, 2025)

Assay: in vitro
Conditions: human, hela cells, % viability

SMILES | viability at 28.5 h, 10 µM
CSCCCNC(=O)N1CCCC(CO)C1 (stereo not drawn) [CBK156031] | 106%
O=C(NCc1cccnc1)N1CCCC(CO)C1 (stereo not drawn) [CBK156037] | 90.5%
COCCNC(=O)N1CCCC(CO)C1 (stereo not drawn) [CBK156040] | 88.3%
COc1cc(CNC(=O)N2CCCC(CO)C2)cc(OC)c1OC (stereo not drawn) [CBK156041] | 91.5%
O=C(Nc1ccc(Cl)cc1)N1CCCC(CO)C1 (stereo not drawn) [CBK156047] | 112%
O=C(NCc1ccc(Cl)cc1)N1CCCC(CO)C1 (stereo not drawn) [CBK156053] | 96.6%
O=C(NCc1ccc(F)cc1)N1CCCC(CO)C1 (stereo not drawn) [CBK156056] | 102%
COc1ccc(CCNC(=O)N2CCCC(CO)C2)cc1 (stereo not drawn) [CBK156059] | 87.1%
CCN(CC)CCCNC(=O)N1CCCC(CO)C1 (stereo not drawn) [CBK156061] | 103%
Cc1ccc(NC(=O)N2CCCC(CO)C2)cc1 (stereo not drawn) [CBK156065] | 77.9%
O=C(O)C1CCN(C(=O)NCCOc2ccccc2)CC1 [CBK156072] | 82.2%
COc1ccc(CCNC(=O)N2CCC(C(=O)O)CC2)cc1 [CBK156073] | 75.6%
CC(C)CCNC(=O)N1CCC(C(=O)O)CC1 [CBK156075] | 95.3%
CCOC(=O)N1CCC(NC(=O)N2CCC(C(=O)O)CC2)CC1 [CBK156080] | 95.2%
CN1CCC(N2CCN(C(=O)NCCCN3CCCC3=O)CC2)CC1 [CBK156105] | 102%
CN1CCC(N2CCN(C(=O)Nc3cccnc3)CC2)CC1 [CBK156111] | 93.1%
CCOC(=O)N1CCC(NC(=O)N2CCN(C3CCN(C)CC3)CC2)CC1 [CBK156113] | 92.2%
CCN(CC)C(=O)C1CCCN(C(=O)NCc2cc(C)on2)C1 (stereo not drawn) [CBK156114] | 89.5%
CCN(CC)C(=O)C1CCCN(C(=O)NCC2COc3ccccc3O2)C1 (stereo not drawn) [CBK156116] | 81.4%
CCN(CC)C(=O)C1CCCN(C(=O)NCc2ccc3c(c2)OCO3)C1 (stereo not drawn) [CBK156121] | 100%
CCN(CC)C(=O)C1CCCN(C(=O)NCc2cnc(C)cn2)C1 (stereo not drawn) [CBK156122] | 101%
CCN(CC)C(=O)C1CCCN(C(=O)NCCN2CCOCC2)C1 (stereo not drawn) [CBK156128] | 96.1%
CCN(CC)C(=O)C1CCCN(C(=O)NCCOC)C1 (stereo not drawn) [CBK156129] | 99.2%
CCN(CC)C(=O)C1CCCN(C(=O)NCc2cc(OC)c(OC)c(OC)c2)C1 (stereo not drawn) [CBK156130] | 86.8%

SMILES | viability at 28.5 h, 10 µM
CCN(CC)C(=O)C1CCCN(C(=O)Nc2ccc(N(CC)CC)cc2)C1 (stereo not drawn) [CBK156139] | 94.4%
CCN(CC)C(=O)C1CCCN(C(=O)NC2CCc3ccccc32)C1 (stereo not drawn) [CBK156156] | 92.2%
CCN(CC)C(=O)C1CCCN(C(=O)Nc2cccnc2)C1 (stereo not drawn) [CBK156157] | 96.8%
Cc1cc(CNC(=O)N2CCCCC2CO)no1 (stereo not drawn) [CBK156160] | 108%
O=C(NCC1COc2ccccc2O1)N1CCCCC1CO (stereo not drawn) [CBK156162] | 103%
CSCCCNC(=O)N1CCCCC1CO (stereo not drawn) [CBK156163] | 108%
O=C(NCc1ccc(Cl)c(Cl)c1)N1CCCCC1CO (stereo not drawn) [CBK156164] | 113%
O=C(NCc1cccc(C(F)(F)F)c1)N1CCCCC1CO (stereo not drawn) [CBK156165] | 90.7%
O=C(NCc1cccc2ccccc12)N1CCCCC1CO (stereo not drawn) [CBK156167] | 99.7%
O=C(Nc1ccc(Cl)cc1)N1CCCCC1CO (stereo not drawn) [CBK156179] | 99.5%
CC(=O)Nc1cccc(NC(=O)N2CCCCC2CO)c1 (stereo not drawn) [CBK156181] | 101%
CCc1ccc(CNC(=O)Cn2nnc(-c3ccc(CN4CCC(C)CC4)nc3SC)n2)cc1 [CBK156205T] | 90.3%
CN1CCC(N2CCN(C(=O)c3ccc(-c4ccc(OC(F)(F)F)cc4)nc3)CC2)CC1 [CBK156206] | 92.8%
O=C(NCC1COc2ccccc2O1)c1ccc(-c2ccc(OC(F)(F)F)cc2)nc1 (stereo not drawn) [CBK156214] | 88.3%
CSCCCNC(=O)c1ccc(-c2ccc(OC(F)(F)F)cc2)nc1 [CBK156216] | 95%
NS(=O)(=O)c1ccc(CNC(=O)c2ccc(-c3ccc(OC(F)(F)F)cc3)nc2)cc1 [CBK156246] | 84.1%
N#Cc1ccc(CNC(=O)c2ccc(-c3ccc(OC(F)(F)F)cc3)nc2)cc1 [CBK156249] | 87.2%
Cc1cc(Cl)ccc1CNC(=O)c1ccc(-c2ccoc2)nc1 [CBK156254] | 101%
CSCCCNC(=O)c1ccc(-c2ccoc2)nc1 [CBK156262] | 99%
O=C(NCc1cccs1)c1ccc(-c2ccoc2)nc1 [CBK156269] | 106%
O=C(NCc1cccnc1)c1ccc(-c2ccoc2)nc1 [CBK156275] | 89.6%
CN1CCN(C(=O)c2ccc(-c3ccoc3)nc2)CC1 [CBK156280] | 100%
CC(C)c1ccc(CNC(=O)c2ccc(-c3ccoc3)nc2)cc1 [CBK156292] | 91.4%
CN(C)S(=O)(=O)Nc1ccc(-c2nnn[nH]2)cc1 [CBK156312] | 96.2%

SMILES | viability at 28.5 h, 10 µM
CN(C)S(=O)(=O)Nc1ccc2[nH]ccc2c1 [CBK156321] | 92.2%
O=S(=O)(Nc1ccc2[nH]ccc2c1)c1c(Cl)cc(C(F)(F)F)cc1Cl [CBK156328] | 75.5%
CCOC(=O)CCCNC(=O)N1CCCC(CO)C1 (stereo not drawn) [CBK156344] | 102%
CN1CCN(CCCNC(=O)N(CCC#N)C2CCCCC2)CC1 [CBK156346] | 112%
Cc1cnc(CNC(=O)N(CCC#N)C2CCCCC2)cn1 [CBK156352] | 96.5%
N#CCCN(C(=O)NCc1cccc2ccccc12)C1CCCCC1 [CBK156353] | 89%
N#CCCN(C(=O)NCc1cccnc1)C1CCCCC1 [CBK156355] | 104%
N#CCCN(C(=O)NCCN1CCOCC1)C1CCCCC1 [CBK156357] | 107%
COc1cc(CNC(=O)N(CCC#N)C2CCCCC2)cc(OC)c1OC [CBK156359] | 98.1%
N#CCCN(C(=O)Nc1ccc2[nH]ccc2c1)C1CCCCC1 [CBK156362] | 97.9%
N#CCCN(C(=O)Nc1ccccc1Cl)C1CCCCC1 [CBK156366] | 86.8%
CC(=O)Nc1cccc(NC(=O)N(CCC#N)C2CCCCC2)c1 [CBK156367] | 91.9%
N#CCCN(C(=O)NCc1c(Cl)cccc1Cl)C1CCCCC1 [CBK156371] | 88%
N#CCCN(C(=O)NCCOc1ccccc1)C1CCCCC1 [CBK156374] | 94.9%
COc1ccc(CCNC(=O)N(CCC#N)C2CCCCC2)cc1 [CBK156375] | 100%
CCN(CC)CCCNC(=O)N(CCC#N)C1CCCCC1 [CBK156377] | 95%
COc1cc(NC(=O)N(CCC#N)C2CCCCC2)cc(OC)c1OC [CBK156380] | 94.4%
Cc1ccc(NC(=O)N(CCC#N)C2CCCCC2)cc1 [CBK156381] | 106%
CC(NC(=O)N(CCC#N)C1CCCCC1)c1ccccc1 (stereo not drawn) [CBK156382] | 97.2%
N#CCCN(C(=O)NC1CCc2ccccc21)C1CCCCC1 (stereo not drawn) [CBK156383] | 95.5%
CN1CCN(CCCNC(=O)N2CCN(c3ccc(F)cc3)CC2)CC1 [CBK156386] | 91.2%
O=C(NCC1COc2ccccc2O1)N1CCN(c2ccc(F)cc2)CC1 (stereo not drawn) [CBK156387] | 92.8%
O=C(NCC1CCCCC1)N1CCN(c2ccc(F)cc2)CC1 [CBK156397] | 86.9%
O=C(NCC(c1ccccc1)c1ccccc1)N1CCN(c2ccc(F)cc2)CC1 [CBK156415] | 97%

SMILES | viability at 28.5 h, 10 µM
O=C(NCCOc1ccccc1)N1CCN(c2ccc(F)cc2)CC1 [CBK156416] | 92.7%
CCN(CC)CCCNC(=O)N1CCN(c2ccc(F)cc2)CC1 [CBK156419] | 88.6%
CSCCCNC(=O)N1CCN(c2cc(C(F)(F)F)ccn2)CC1 [CBK156433] | 92.3%
O=C(NCc1cccc(C(F)(F)F)c1)N1CCN(c2cc(C(F)(F)F)ccn2)CC1 [CBK156435] | 102%
COCC(=O)N1CCC2(CC1)CC(=O)c1cc(Cl)cc(Cl)c1O2 [CBK156440] | 84.1%
O=C1CC2(CCN(C(=O)c3ccccn3)CC2)Oc2ccc(Br)cc21 [CBK156443] | 93.7%
CC(=O)NCC(=O)N1CCC2(CC1)CC(=O)c1cc(Br)ccc1O2 [CBK156447] | 106%
COc1ccc2c(c1)OC1(CCN(C(=O)c3ccc(C(C)=O)cc3)CC1)CC2=O [CBK156457] | 94.2%
O=C1NCC(C(=O)N2CCC3(CC2)CC(=O)c2cc(Br)ccc2O3)N1 (stereo not drawn) [CBK156475] | 87.7%
O=C1NC(=O)C(CC(=O)N2CCC3(CC2)CC(=O)c2cc(Cl)ccc2O3)N1 (stereo not drawn) [CBK156485] | 107%
CCCCC(=O)N1CCC2(CC1)CC(=O)c1ccc(OCc3ccccc3)c(C)c1O2 [CBK156493] | 104%
Cc1cnc(C(=O)N2CCC3(CC2)CC(=O)c2cc(Cl)cc(Cl)c2O3)cn1 [CBK156502] | 89.7%
Cc1noc(C)c1C(=O)N1CCC2(CC1)CC(=O)c1ccc(OCc3ccccc3)c(C)c1O2 [CBK156506] | 97.4%
O=C1CC2(CCN(C(=O)C3CCOC3)CC2)Oc2c(Br)cc(Br)cc21 (stereo not drawn) [CBK156512] | 96.4%
CC(OC(=O)c1ccc2c(c1)C(=O)N(c1ccc(Cl)cc1)C2=O)C(=O)c1ccccc1 (stereo not drawn) [CBK156661] | 111%
COc1ccccc1OCC(=O)N1CCC2(CCNC2)C1 (stereo not drawn) [CBK156703C] | 99.6%
O=C(c1ccc2[nH]c(=O)[nH]c2c1)N1CCC2(CCNC2)C1 (stereo not drawn) [CBK156747C] | 101%
CCCCCCOC(=O)c1ccc2c(c1)C(=O)N(c1cccc(N)c1)C2=O [CBK157034] | 106%
O=C(Nc1ncc(-c2ccccc2)s1)c1cccc([N+](=O)[O-])c1 [CBK157055] | 92.7%
CC(OC(=O)c1ccc2c(c1)C(=O)N(c1ccc([N+](=O)[O-])cc1)C2=O)C(=O)c1ccccc1 (stereo not drawn) [CBK157061] | 94.3%
COc1cccc(C(=O)N2CCN(S(=O)(=O)c3ccc([N+](=O)[O-])cc3)CC2)c1 [CBK157533] | 96.9%
